# Assay results reported in patent US20250162989A1, “USP30 INHIBITORS AND USES THEREOF” (Vincere Biosciences, Inc., priority 2021, published 2025).
# pIC50: −log10 of the molar value. Read-outs that look alike come from different tables or passages of the source.
# Columns and labels:
# [1] = target: recombinant USP30 (amino acids 57-517 of the human sequence) (Homo sapiens (Human), UniProt Q70CQ3); assay: In vitro USP30 biochemical assay (Ubiquitin-Rhodamine substrate); conditions: fluorescence
# Chain of recombinant USP30 (amino acids 57-517 of the human sequence) (Q70CQ3 57-517): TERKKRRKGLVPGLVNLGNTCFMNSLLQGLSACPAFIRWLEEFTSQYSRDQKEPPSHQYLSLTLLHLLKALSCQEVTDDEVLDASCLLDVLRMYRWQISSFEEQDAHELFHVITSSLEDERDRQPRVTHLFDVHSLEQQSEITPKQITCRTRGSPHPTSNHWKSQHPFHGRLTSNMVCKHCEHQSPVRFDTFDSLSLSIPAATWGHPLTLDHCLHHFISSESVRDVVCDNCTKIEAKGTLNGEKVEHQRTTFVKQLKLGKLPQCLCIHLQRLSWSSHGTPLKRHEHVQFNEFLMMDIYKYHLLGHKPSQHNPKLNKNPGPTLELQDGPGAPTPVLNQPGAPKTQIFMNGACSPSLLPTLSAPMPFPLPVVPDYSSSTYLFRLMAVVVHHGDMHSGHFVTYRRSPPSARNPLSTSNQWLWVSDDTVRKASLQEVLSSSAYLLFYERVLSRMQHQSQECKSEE
# Description: In vitro biochemical assay to establish the potency of compounds for USP30 inhibition: a 384-well plate assay using a fluorophore tagged substrate of USP30 was used for in vitro screening of compounds. Each compound was tested at
# 10 different concentrations (0.5 to 10,000 nM) in duplicate wells. […] Data were analyzed using Graph Pad Prism software with a four-parameter (floating slope) fit to log concentration data to determine IC50s.
# [2] = Kinetic solubility; format: physicochemical; conditions: 100 mM PBS, 1 hour at room temperature
# Description: To 396 μL of a 100 mM phosphate buffered saline (PBS) was added 4 μL of a 10 mM stock solution of the compound. The mixture was shaken at 1000 rpm for 1 hour at room temperature. […] Compound concentration was calculated by comparison to a standard calibration curve. The assay was done in duplicate. The results are reported in μMol.
# [3] = target: USP30 (Homo sapiens (Human), UniProt Q70CQ3); assay: Dundee MALDI-TOF mass spectrometry assay (K48-linked diubiquitin cleavage); format: biochemical; conditions: USP30 25 ng/μl, K48-linked diubiquitin 5.6 μM; for IC50: read-out: USP30 IC50 μM (avg); for pIC50: read-out: IC50
# Chain of USP30 (Q70CQ3 whole entry): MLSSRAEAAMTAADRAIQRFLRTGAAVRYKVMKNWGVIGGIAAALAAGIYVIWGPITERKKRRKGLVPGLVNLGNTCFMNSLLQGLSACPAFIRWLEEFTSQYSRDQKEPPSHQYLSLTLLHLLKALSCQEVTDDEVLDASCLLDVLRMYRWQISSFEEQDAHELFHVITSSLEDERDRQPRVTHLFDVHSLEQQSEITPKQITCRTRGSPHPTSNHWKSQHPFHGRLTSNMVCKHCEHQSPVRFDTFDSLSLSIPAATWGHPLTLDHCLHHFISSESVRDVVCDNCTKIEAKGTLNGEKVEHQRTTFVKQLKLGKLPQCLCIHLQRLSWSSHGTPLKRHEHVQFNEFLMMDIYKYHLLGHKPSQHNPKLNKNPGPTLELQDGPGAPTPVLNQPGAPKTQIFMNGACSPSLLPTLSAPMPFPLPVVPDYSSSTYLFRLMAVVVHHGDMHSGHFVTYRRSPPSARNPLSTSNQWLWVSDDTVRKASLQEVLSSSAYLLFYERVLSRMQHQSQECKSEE
# Description: USP30 was diluted in a buffer containing 40 mM Tris, 0.01% BSA, 1 mM DTT and K48 in 40 mM Tris, 0.01% BSA.
# The compounds were pre-incubated with the USP30 for 5 mins at room temp before the K48 dimer addition. The assay mixture was then incubated for 45 mins at room temp. The assay was stopped by the addition of TFA to a final concentration of 2% (v/v).
# Acidified samples of the DUB assays were mixed with 0.5 mM 15N-ubiquitin and then with one part of 2% (v/v) TFA and one part of 2.5 DHAP matrix solution (7.6 mg of 2.5 DHAP in […] ethanol and […] of an aqueous 12 mg ml 1 diammonium hydrogen citrate).
# [4] = 1.5 nM recombinant USP30, 25 nM Ubiquitin-Rhodamine
# [5] = […] recombinant USP30, 25 nM Ubiquitin-Rhodamine
Structure (SMILES),"IC50 [1, 4] [µM]",Kinetic Solubility (μMol) [2],"IC50 [1, 5] [µM]",IC50 [3] [µM],pIC50 [3]
"CC(C)C[C@H](NC(=O)c1ccc(F)cc1)C(=O)Nc1ccc(S(=O)(=O)NC(C)(C)CCO)cc1 [Compound I-20, (S)-4-fluoro-N-(1-((4-(N-(4-hydroxy-2-methylbutan-2-yl)sulfamoyl)phenyl)amino)-4-methyl-1-oxopentan-2-yl)benzamide]",0.05 to 1,B (solubility of ≥50.0 μMol and <75.0 μMol),,,
CC(C)(CO)NS(=O)(=O)c1ccc(NC(=O)[C@@H](NC(=O)c2ccc(F)cc2)C(C)(C)c2ccccc2)cc1 [Compound I-62],1 to 10,C (solubility ≥1.0 μMol and <50.0 μMol),,,
"CC(C)(C)NS(=O)(=O)c1ccc(NC(=O)[C@H](CC2CCNCC2)NC(=O)c2ccc(F)cn2)cc1 [Compound I-175, (S)—N-(1-((4-(N-(tert-butyl)sulfamoyl)phenyl)amino)-1-oxo-3-(piperidin-4-yl)propan-2-yl)-5-fluoropicolinamide]",,A (solubility of ≥75.0 μMol),< 0.05,< 0.05,
CC(C)CC[C@H](NC(=O)c1ccc(F)cc1)C(=O)Nc1ccc(S(=O)(=O)NC(C)(C)C)cc1 [Compound I-23],,D (solubility of <1.0 μMol),< 0.05,,
COCCN1CCC(C[C@H](NC(=O)c2ccc(F)cc2)C(=O)Nc2ccc(S(=O)(=O)NC(C)(C)C)cc2)CC1 [Compound I-173],,,< 0.05,< 0.05,
O=C(N[C@@H](Cc1ccccc1)C(=O)Nc1ccc(S(=O)(=O)NC2COC2)c(O)c1)c1ccc(F)cc1 [Compound I-66],0.05 to 1,B (solubility of ≥50.0 μMol and <75.0 μMol),,,> 7.30
COc1cc(NC(=O)[C@H](CC2CCN(C(C)=O)CC2)NC(=O)c2ccc(F)cc2)ccc1S(=O)(=O)NC(C)(C)C [Compound I-160],,,< 0.05,< 0.05,
CN1CCC(C[C@H](NC(=O)c2ccc(F)cn2)C(=O)Nc2ccc(S(=O)(=O)NC(C)(C)C(F)(F)F)cc2)CC1 [Compound I-202],,,< 0.05,< 0.05,
O=C(N[C@@H](Cc1ccccc1)C(=O)Nc1ccc(S(=O)(=O)NC2(CO)CC2)cc1)c1ccc(F)cc1 [Compound I-131],,,< 0.05,< 0.05,
CN1CCC(C[C@H](NC(=O)c2ccc(F)cc2)C(=O)Nc2ccc(S(=O)(=O)N[C@@H]3CCOC3)cc2)CC1 [Compound I-103],0.05 to 1,,,0.05 to 1,
CN1CCC(C[C@H](NC(=O)c2ccc(F)cc2)C(=O)Nc2ccc(S(=O)(=O)NC(C)(C)C(F)(F)F)cc2)CC1 [Compound I-158],0.05 to 1,,,< 0.05,
CC(C)(C)NS(=O)(=O)c1ccc(NC(=O)C(CC2CCN(CCO)CC2)NC(=O)c2ccc(F)cc2)cc1 (centres unmarked) [Compound I-121],,,< 0.05,< 0.05,
O=C(N[C@@H](CC1CCOCC1)C(=O)Nc1ccc(S(=O)(=O)NC2CCOCC2)nc1)c1ccc(F)cc1 [Compound I-133],0.05 to 1,,,< 0.05,
CC(=O)CN1CCC(C[C@H](NC(=O)c2ccc(F)cc2)C(=O)Nc2ccc(S(=O)(=O)NC(C)(C)C)cc2)CC1 [Compound I-172],0.05 to 1,,,< 0.05,
COc1cc(NC(=O)[C@H](CC2CCN(C)CC2)NC(=O)c2ccc(F)cc2)ccc1S(=O)(=O)NC(C)(C)CO [Compound I-93],0.05 to 1,,,0.05 to 1,
COc1cc(NC(=O)[C@H](CC2CCNCC2)NC(=O)c2ccc(F)cc2)ccc1S(=O)(=O)NC(C)(C)CO [Compound I-159],0.05 to 1,,,0.05 to 1,
O=C(N[C@@H](CC1CCOCC1)C(=O)Nc1ccc(S(=O)(=O)NC2CCC2)nc1)c1ccc(F)cc1 [Compound I-91],0.05 to 1,,,< 0.05,
Cn1cncc1CNS(=O)(=O)c1ccc(NC(=O)[C@H](Cc2ccccc2)NC(=O)c2ccc(F)cc2)cc1 [Compound I-227],0.05 to 1,,,0.05 to 1,
O=C(N[C@@H](Cc1ccccc1)C(=O)Nc1ccc(S(=O)(=O)NC2COC2)c(C(F)(F)F)c1)c1ccc(F)cc1 [Compound I-68],0.05 to 1,,,,> 7.30
CC(C)(C)NS(=O)(=O)c1cccc2c(NC(=O)[C@H](Cc3ccccc3)NC(=O)c3ccc(F)nc3)cccc12 [Compound I-182],,,< 0.05,< 0.05,
O=C(N[C@@H](CC1CCNCC1)C(=O)Nc1ccc(S(=O)(=O)N[C@@H]2CCOC2)cc1)c1ccc(F)cc1 [Compound I-107],0.05 to 1,,,0.05 to 1,
C[C@@H](CO)NS(=O)(=O)c1ccc(NC(=O)[C@H](Cc2ccccc2)NC(=O)c2ccc(F)cc2)cn1 [Compound I-149],0.05 to 1,,,< 0.05,

# Next, values leading:
"IC50 [1, 4] [µM]",Kinetic Solubility (μMol) [2],"IC50 [1, 5] [µM]",IC50 [3] [µM],pIC50 [3],Structure (SMILES)
0.05 to 1,D (solubility of <1.0 μMol),,,,CC(C)(CCO)NS(=O)(=O)c1ccc(NC(=O)[C@H](Cc2ccc(-c3ccccc3)cc2)NC(=O)c2ccc(F)cc2)cc1 [Compound I-59]
0.05 to 1,A (solubility of ≥75.0 μMol),,,,CN1CCC(C[C@H](NC(=O)c2ccc(F)cc2)C(=O)Nc2ccc(S(=O)(=O)NC(C)(C)C)cc2)CC1 [Compound I-41]
0.05 to 1,A (solubility of ≥75.0 μMol),,,,CCN1CCC(C[C@H](NC(=O)c2ccc(F)cc2)C(=O)Nc2ccc(S(=O)(=O)NC(C)(C)C)cc2)CC1 [Compound I-42]
0.05 to 1,,,0.05 to 1,,COc1cc(NC(=O)[C@@H]2C[C@@H](c3ccccc3)CN2C(=O)c2ccc(F)cc2)ccc1S(=O)(=O)NC(C)(C)CO [Compound I-272]
0.05 to 1,D (solubility of <1.0 μMol),,,,CC(C)(C)NS(=O)(=O)c1ccc(NC(=O)[C@H](Cc2ccc(-c3ccccc3)cc2)NC(=O)c2ccc(F)cc2)cc1 [Compound I-60]
0.05 to 1,,,< 0.05,,O=C(N[C@@H](CC1CCOCC1)C(=O)Nc1ccc(S(=O)(=O)NC2CCOCC2)cc1)c1ccc(F)cc1 [Compound I-128]
0.05 to 1,,,0.05 to 1,,CC(CO)(CO)NS(=O)(=O)c1ccc(NC(=O)[C@H](Cc2ccccc2)NC(=O)c2ccc(F)cc2)cn1 [Compound I-148]
0.05 to 1,,,0.05 to 1,,CN1CCC(C[C@H](NC(=O)c2ccc(F)cc2)C(=O)Nc2ccc(S(=O)(=O)N[C@@H]3CCOC3)nc2)CC1 [Compound I-105]
0.05 to 1,,,0.05 to 1,,CC(C)(C)NS(=O)(=O)c1ccc(NC(=O)[C@H](Cc2ccccc2)NC(=O)C2CCOCC2)cc1 [Compound I-174]
0.05 to 1,,,< 0.05,,COc1cc(NC(=O)[C@H](Cc2ccccc2)NC(=O)c2ccc(F)cc2)ccc1S(=O)(=O)N[C@@H](C)CO [Compound I-136]
0.05 to 1,,,0.05 to 1,,COc1cc(NC(=O)[C@H](CC2CCNCC2)NC(=O)c2ccc(F)cc2)ccc1S(=O)(=O)NC(C)(C)CF [Compound I-209]
0.05 to 1,,,0.05 to 1,,CC(C)(C)NS(=O)(=O)c1ccc(NC(=O)[C@H](CC2CCNCC2)NC(=O)c2ccc(F)nc2)cc1 [Compound I-186]
0.05 to 1,,,0.05 to 1,,CN1CCC(C[C@H](NC(=O)c2ccc(F)cc2)C(=O)Nc2ccc(S(=O)(=O)NC(C)(C)CO)nc2)CC1 [Compound I-106]
0.05 to 1,D (solubility of <1.0 μMol),,,,CC(C)(C)NS(=O)(=O)c1ccc(NC(=O)[C@@H](NC(=O)c2ccc(F)cc2)C(C)(C)c2ccccc2)cc1 [Compound I-61]
0.05 to 1,A (solubility of ≥75.0 μMol),,< 0.05,,CN1CCC(C[C@H](NC(=O)c2ccc(F)cc2)C(=O)Nc2ccc(S(=O)(=O)NC(C)(C)C)nc2)CC1 [Compound I-78]
